What was measured:
[1] = test system: A2780-CIS cells (cisplatin-resistant); experiment: Growth inhibition of A2780-CIS cells; format: cell-based, human
A2780wt cells = experiment: Growth inhibition of A2780wt cells; format: cell-based, human; settings: read-out: IC50 ± SD A2780wt
OVCAR-3 cells = experiment: Growth inhibition of OVCAR-3 cells; format: cell-based, human
tubulin = experiment: Inhibition of tubulin polymerization; format: biochemical; settings: read-out: tubulin assembly inhibition; footnotes of Table 4
[2] = test system: HAOSMC human aortic smooth muscle cells; settings: read-out: IC50 ± SD HAOSMC; ref [16]; cited from earlier work
[3] = test system: PtK2 kidney epithelial cells; settings: read-out: IC50 ± SD PtK2; ref [16]; cited from earlier work
[4] = test system: A10 rat embryonic aortic smooth muscle cells; settings: read-out: IC50 ± SD A10; ref [16]; cited from earlier work
[5] = test system: MCF-7 human breast carcinoma cells; settings: read-out: IC50 ± SD MCF-7; ref [16]; cited from earlier work
[6] = test system: HUVEC human umbilical vein endothelial cells; settings: read-out: IC50 ± SD HUVEC; ref [16]; cited from earlier work
[7] = iv and os pharmacokinetics in mice; format: in vivo; settings: male, CD-1, mouse, plasma, 5 mg/kg

For `N.N.[Cl][Pt][Cl]` [cisplatin], the “RI-1 (Resistant Index-1)” value ([1]; IC50 in A2780-CIS divided by IC50 in A2780wt) was 18.5, the IC50 ([1]; read-out: IC50 ± SD A2780-CIS) was 8980 ± 565 nM and the IC50 (A2780wt cells) was 485 ± 60 nM. The “RI-2 (Resistant Index-2)” value (OVCAR-3 cells; IC50 in OVCAR-3 divided by IC50 in A2780wt) was 3.7 and the IC50 (OVCAR-3 cells; read-out: IC50 ± SD OVCAR-3) was 1820 ± 254 nM.
For `CC(=O)O[C@H]1C(=O)[C@@]2(C)[C@H]([C@H](OC(=O)c3ccccc3)[C@]3(O)C[C@H](OC(=O)[C@H](O)[C@@H](NC(=O)c4ccccc4)c4ccccc4)C(C)=C1C3(C)C)[C@]1(OC(C)=O)CO[C@@H]1C[C@@H]2O` [PTX, paclitaxel], the IC50 [2] is listed as 6 ± 6 nM, the IC50 [3] is listed as 21 ± 8 nM and the IC50 [4] is listed as 38 ± 10 nM. The IC50 [5] was 3 ± 0.5 nM and the IC50 [6] was 7 ± 4 nM.
Work on `COc1cc(Sc2c(-c3cc[nH]c3)[nH]c3ccccc23)cc(OC)c1OC` [Compound 5, 2-(1H-Pyrrol-3-yl)-3-[(3′,4′,5′-trimethoxyphenyl)thio]-1H-indole] yielded a clearance [7] of 28.6 mL/min/kg.
For `CCC1=C[C@@H]2CN(C1)Cc1c([nH]c3ccccc13)[C@@](C(=O)OC)(c1cc3c(cc1OC)N(C)[C@H]1[C@@](O)(C(=O)OC)[C@H](OC(C)=O)[C@]4(CC)C=CCN5CC[C@]31[C@@H]54)C2` [VRB, vinorelbine], the IC50 (tubulin) was 3100 nM.

Reference: article PMC3261769 (Journal of Medicinal Chemistry, 2011)
